27 compounds from US12577242B2, “Pyrrolopyridine and imidazopyridine antiviral compounds” (KATHOLIEKE UNIVERSITEIT LEUVEN, priority 2020, dated 2026) can be followed below.

The structures appear in SMILES notation.

Series [1] can be described thus: Cytotoxicity in MDBK cells (no BVD virus added). The conditions noted are these: bovine, MDBK cells (Madin-Darby bovine kidney), no virus added.
Series [2] deals with Bovine viral diarrhea (BVD) virus. In words: Anti-BVDV CPE inhibition assay in MDBK cells. The conditions noted are these: for EC50: Bovine viral diarrhea virus isolates and strains, MDBK, in Bos taurus, 96 h; for SI (selectivity index, ratio of CC50 and EC50): CC50/EC50, MDBK cells, BVD virus.

As a reminder, the CC50 is the concentration at which the toxic effect on the cells reaches its halfway point. What is called EC50 is the midpoint of the concentration-response curve. Read a low EC50 as greater potency. For the compound `COc1ccc2oc(Cn3ccc4nc(-c5ccccc5F)nc-4c3)nc2c1` [CPD-33, 2-((2-(2-fluorophenyl)-5H-imidazo[4,5-c]pyridin-5-yl)methyl)-5-methoxybenzo[d]oxazole], in series [1], the half-maximal cytotoxic concentration (CC50) at 4 days was over 50000 nM. In series [2], a half-maximal response (EC50) required 447 nM; the “SI (selectivity index, ratio of CC50 and EC50)” value was over 112.
`Fc1ccc(-c2cc(Cn3ccc4nc(-c5ccccc5F)nc-4c3)on2)c(F)c1` [CPD-34, 3-(2,4-difluorophenyl)-5-((2-(2-fluorophenyl)-5H-imidazo[4,5-c]pyridin-5-yl)methyl)isoxazole] yielded a 50% cytotoxic concentration (CC50) at 4 days in series [1] of over 50000 nM. Besides, in series [2], the EC50 was determined as 92 ± 49 nM; the “SI (selectivity index, ratio of CC50 and EC50)” value is given as over 543.
The like results for `Fc1ccc(F)c(-c2cc(Cn3ccc4nc(-c5ccccc5F)nc-4c3)on2)c1` [CPD-35, 3-(2,5-difluorophenyl)-5-((2-(2-fluorophenyl)-5H-imidazo[4,5-c]pyridin-5-yl)methyl)isoxazole] were, in that order, over 50000 nM, 75 ± 24 nM and over 667.
With `Cc1ccc2nc(Cn3ccc4nc(-c5ccccc5F)nc-4c3)[nH]c2c1` [CPD-36, 2-(2-fluorophenyl)-5-((6-methyl-1H-benzo[d]imidazol-2-yl)methyl)-5H-imidazo[4,5-c]pyridine], the CC50 at 4 days in series [1] is over 50000 nM. Besides, in series [2], a half-maximal effect (EC50) was put at 403 ± 129 nM; the “SI (selectivity index, ratio of CC50 and EC50)” value was over 124.
Compound `Fc1ccc2nc(Cn3ccc4nc(-c5ccccc5F)nc-4c3)[nH]c2c1` [CPD-37, 5-((6-fluoro-1H-benzo[d]imidazol-2-yl)methyl)-2-(2-fluorophenyl)-5H-imidazo[4,5-c]pyridine] gave a CC50 at 4 days in series [1] of over 50000 nM. Further, in series [2], the midpoint of the response, the EC50, lay at 370 ± 74 nM; the “SI (selectivity index, ratio of CC50 and EC50)” value was over 135.
In turn, `Fc1ccccc1-c1nc2ccn(Cn3nnc4ccccc43)cc-2n1` [CPD-38, 1-((2-(2-fluorophenyl)-5H-imidazo[4,5-c]pyridin-5-yl)methyl)-1H-benzo[d][1,2,3]triazole] gave a half-maximal cytotoxic concentration (CC50) at 4 days in series [1] of over 50000 nM. For the same compound, in series [2], the EC50 amounted to 336 ± 103 nM; the “SI (selectivity index, ratio of CC50 and EC50)” value was over 149.
In the same order, the values of `Fc1cccc(-c2nc3ccn(Cc4cc(-c5cc(F)ccc5F)no4)cc-3n2)c1` [CPD-39, 3-(2,5-difluorophenyl)-5-((2-(3-fluorophenyl)-5H-imidazo[4,5-c]pyridin-5-yl)methyl)isoxazole] are over 50000 nM, 84 ± 8 nM and over 595.
In series [1], `Cc1ccc2nc(Cn3ccc4nc(-c5cc(OCCO)ccc5F)nc-4c3)sc2c1` [CPD-41, 2-(4-fluoro-3-(5-((6-methylbenzo[d]thiazol-2-yl)methyl)-5H-imidazo[4,5-c]pyridin-2-yl)phenoxy)ethan-1-ol] showed a CC50 at 4 days of over 50000 nM. Moreover, in series [2], a half-maximal response (EC50) required 223 ± 143 nM; the “SI (selectivity index, ratio of CC50 and EC50)” value was over 224.
`OCCOc1ccc(F)c(-c2nc3ccn(Cc4cc(-c5cc(F)ccc5F)no4)cc-3n2)c1` [CPD-42, 2-(3-(5-((3-(2,5-difluorophenyl)isoxazol-5-yl)methyl)-5H-imidazo[4,5-c]pyridin-2-yl)-4-fluorophenoxy)ethan-1-ol] gave a CC50 at 4 days in series [1] of over 50000 nM. Moreover, in series [2], the EC50 came to 460 ± 48 nM; the “SI (selectivity index, ratio of CC50 and EC50)” value is on record as over 109.
In the same order, the values of `N#Cc1ccc(-c2nc3ccn(Cc4cc(-c5cc(F)ccc5F)no4)cc-3n2)cc1` [CPD-43, 4-(5-((3-(2,5-difluorophenyl)isoxazol-5-yl)methyl)-5H-imidazo[4,5-c]pyridin-2-yl)benzonitrile] are over 50000 nM, 81 ± 8 nM and over 617.
The like results for `CN(C)c1cccc(-c2nc3ccn(Cc4cc(-c5cc(F)ccc5F)no4)cc-3n2)c1` [CPD-44, 3-(5-((3-(2,5-difluorophenyl)isoxazol-5-yl)methyl)-5H-imidazo[4,5-c]pyridin-2-yl)-N,N-dimethylaniline] were, in that order, over 50000 nM, 88 ± 17 nM and over 568.
The compound `Cc1ccc2nc(Cn3ccc4nc(-c5ccccc5CO)nc-4c3)sc2c1` [CPD-45, (2-(5-((6-methylbenzo[d]thiazol-2-yl)methyl)-5H-imidazo[4,5-c]pyridin-2-yl)phenyl)methanol] came in with a CC50 at 4 days in series [1] of over 50000 nM. Besides, in series [2], the half-maximal effective concentration (EC50) came to 297 ± 107 nM; the “SI (selectivity index, ratio of CC50 and EC50)” value is reported as over 168.
The like results for `OCc1ccccc1-c1nc2ccn(Cc3cc(-c4cc(F)ccc4F)no3)cc-2n1` [CPD-46, (2-(5-((3-(2,5-difluorophenyl)isoxazol-5-yl)methyl)-5H-imidazo[4,5-c]pyridin-2-yl)phenyl)methanol] were, in that order, over 50000 nM, 465 ± 26 nM and over 108.
In the case of `Cc1ccc(-c2nc3ccn(Cc4cc(-c5cc(F)ccc5F)no4)cc-3n2)s1` [CPD-47, 3-(2,5-difluorophenyl)-5-((2-(5-methylthiophen-2-yl)-5H-imidazo[4,5-c]pyridin-5-yl)methyl)isoxazole], the midpoint of cytotoxicity in series [1], the CC50 at 4 days, lay at 24000 nM. For the same compound, in series [2], a half-maximal effect (EC50) was put at 341 ± 25 nM; the “SI (selectivity index, ratio of CC50 and EC50)” value is given as 70.
In series [1], `Cc1cc(-c2nc3ccn(Cc4cc(-c5cc(F)ccc5F)no4)cc-3n2)cs1` [CPD-48, 3-(2,5-difluorophenyl)-5-((2-(5-methylthiophen-3-yl)-5H-imidazo[4,5-c]pyridin-5-yl)methyl)isoxazole] had a CC50 at 4 days of 27000 nM. Also, in series [2], the EC50 amounted to 395 ± 22 nM; the “SI (selectivity index, ratio of CC50 and EC50)” value came out at 68.
The like results for `Cc1scc(-c2nc3ccn(Cc4cc(-c5cc(F)ccc5F)no4)cc-3n2)c1C` [CPD-49, 3-(2,5-difluorophenyl)-5-((2-(4,5-dimethylthiophen-3-yl)-5H-imidazo[4,5-c]pyridin-5-yl)methyl)isoxazole] were, in that order, 31000 nM, 409 nM and 76.
The like results for `Fc1ccc(OC(F)(F)F)cc1-c1cc2ccn(Cn3nnc4ccccc43)cc-2n1` [Compound II, 1-({2-[2-fluoro-5-(trifluoromethoxy)phenyl]-6H-pyrrolo[2,3-c]pyridin-6-yl}methyl)-1H-benzotriazole] were, in that order, 20000 nM, 23 nM and 870.
The compound `OCCOc1ccc(F)c(-c2cc3ccn(Cn4nnc5ccccc54)cc-3n2)c1` [Compound III, 2-(3-{6-[(1H-benzotriazol-1-yl)methyl]-6H-pyrrolo[2,3-c]pyridin-2-yl}-4-fluorophenoxy)ethan-1-ol] displayed a CC50 at 4 days in series [1] of 22000 nM. Moreover, in series [2], a half-maximal effect (EC50) was put at 19 ± 7 nM; the “SI (selectivity index, ratio of CC50 and EC50)” value is reported as 1158.
In turn, `COc1ccccc1-c1cc2ccn(Cn3nnc4ccccc43)cc-2n1` [Compound IV, 1-{[2-(2-methoxyphenyl)-6H-pyrrolo[2,3-c]pyridin-6-yl]methyl}-1H-benzotriazole] registered a half-maximal cytotoxic concentration (CC50) at 4 days in series [1] of 22000 nM. Besides, in series [2], the EC50 was 8 ± 5 nM; the “SI (selectivity index, ratio of CC50 and EC50)” value came out at 2750.
In series [1], `Cc1ccc2oc(Cn3ccc4cc(-c5ccccc5F)nc-4c3)nc2c1` [Compound IX, 2-{[2-(2-fluorophenyl)-6H-pyrrolo[2,3-c]pyridin-6-yl]methyl}-5-methyl-1,3-benzoxazole] returned a CC50 at 4 days of 5000 nM. In series [2], a half-maximal response (EC50) required 1.2 ± 1.5 nM; the “SI (selectivity index, ratio of CC50 and EC50)” value came to 4167.
As to `N#Cc1ccc(-c2cc3ccn(Cn4nnc5ccccc54)cc-3n2)cc1` [Compound VI, 4-{6-[(1H-benzotriazol-1-yl)methyl]-6H-pyrrolo[2,3-c]pyridin-2-yl}benzonitrile], the CC50 at 4 days in series [1] was over 50000 nM. Besides, in series [2], the EC50 was 16 nM; the “SI (selectivity index, ratio of CC50 and EC50)” value is over 3125.
`COc1ncccc1-c1cc2ccn(Cn3nnc4ccccc43)cc-2n1` [Compound VII, 1-{[2-(2-methoxypyridin-3-yl)-6H-pyrrolo[2,3-c]pyridin-6-yl]methyl}-1H-benzotriazole] came in with a CC50 at 4 days in series [1] of 22000 nM. Further, in series [2], the EC50 came to 16 ± 1 nM; the “SI (selectivity index, ratio of CC50 and EC50)” value is 1375.
`Cc1c(-c2cc3ccn(Cn4nnc5ccccc54)cc-3n2)cnn1C` [Compound VIII, 1-[(2-(1,5-dimethyl-1H-pyrazol-4-yl)-6H-pyrrolo[2,3-c]pyridin-6-yl)methyl]-1H-benzotriazole]: the CC50 at 4 days in series [1] is over 50000 nM. In addition, in series [2], a half-maximal effect (EC50) was put at 335 ± 80 nM; the “SI (selectivity index, ratio of CC50 and EC50)” value is over 149.
The like results for `COc1ncccc1-c1cc2ccn(Cc3nc4cc(C)ccc4o3)cc-2n1` [Compound X, 2-((2-(2-methoxypyridin-3-yl)-6H-pyrrolo[2,3-c]pyridin-6-yl)methyl)-5-methyl-1,3-benzoxazole] were, in that order, 4000 nM, 7 ± 4 nM and 571.
In the case of `Cc1ccc2nc(Cn3ccc4cc(-c5ccccc5F)nc-4c3)sc2c1` [Compound XI, 2-{[2-(2-fluorophenyl)-6H-pyrrolo[2,3-c]pyridin-6-yl]methyl}-6-methyl-1,3-benzothiazole], in series [1], the CC50 at 4 days was determined as 4000 nM. In series [2], it took 8 nM to reach a half-maximal effect (EC50); the “SI (selectivity index, ratio of CC50 and EC50)” value stood at 500.
For `Cc1ccc2nc(Cn3ccc4cc(-c5cc(OCCO)ccc5F)nc-4c3)sc2c1` [Compound XII, 2-(4-fluoro-3-(6-((6-methyl-1,3-benzothiazol-2-yl)methyl)-6H-pyrrolo[2,3-c]pyridin-2-yl)phenoxy)ethan-1-ol], the CC50 at 4 days in series [1] turned out to be 5000 nM. Also, in series [2], the EC50 was found to be 20 ± 7 nM; the “SI (selectivity index, ratio of CC50 and EC50)” value was 250.
For the compound `Cc1ccc2nc(Cn3ccc4cc(-c5ccccc5CO)nc-4c3)sc2c1` [Compound XIII, (2-{6-[(6-methyl-1,3-benzothiazol-2-yl)methyl]-6H-pyrrolo[2,3-c]pyridin-2-yl}phenyl)methanol], the CC50 at 4 days in series [1] worked out at 18000 nM. Also, in series [2], the EC50 was determined as 9 ± 8 nM; the “SI (selectivity index, ratio of CC50 and EC50)” value turned out to be 2000.
